Laboratory results reported in PubChem BioAssay (NCI).
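Protocol summary: plate cells (96-well), add compound at 5 concentrations, incubate 48 h, interpolate endpoints linearly. GI50 = concentration required for 50% inhibition of growth. TGI denotes the concentration required for complete inhibition of growth.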

Key:
Assay in all cases: NCI anticancer screen, dose series, 48 h
BT-549 breast = tested on: BT-549 breast
EKVX NSCLC = tested on: EKVX NSCLC
M14 melanoma = tested on: M14 melanoma
SW-620 colon = tested on: SW-620 colon
SR leukemia = tested on: SR leukemia
MALME-3M melanoma = tested on: MALME-3M melanoma
A549 NSCLC = tested on: A549 NSCLC
MCF7 breast = tested on: MCF7 breast
OVCAR-5 ovarian = tested on: OVCAR-5 ovarian
OVCAR-8 ovarian = tested on: OVCAR-8 ovarian
MOLT-4 leukemia = tested on: MOLT-4 leukemia

| SMILES | TGI (BT-549 breast) [nM] | TGI (EKVX NSCLC) [nM] | TGI (M14 melanoma) [nM] | TGI (SW-620 colon) [nM] | TGI (SR leukemia) [nM] | TGI (MALME-3M melanoma) [nM] | TGI (A549 NSCLC) [nM] | TGI (MCF7 breast) [nM] | TGI (OVCAR-5 ovarian) [nM] | TGI (OVCAR-8 ovarian) [nM] | GI50 (BT-549 breast) [nM] | GI50 (SW-620 colon) [nM] | GI50 (SR leukemia) [nM] | GI50 (A549 NSCLC) [nM] | GI50 (MCF7 breast) [nM] | GI50 (MOLT-4 leukemia) [nM] | TGI (MOLT-4 leukemia) [nM] | GI50 (OVCAR-5 ovarian) [nM] | GI50 (MALME-3M melanoma) [nM] | GI50 (OVCAR-8 ovarian) [nM] |
| --- | --- | --- | --- | --- | --- | --- | --- | --- | --- | --- | --- | --- | --- | --- | --- | --- | --- | --- | --- | --- |
| COc1ccc(C(=O)C2CC3(CCC2(O)c2ccc(OC)cc2)CC(=O)Nc2ccccc2C3=O)cc1 (stereo unspecified) | > 100000 | > 100000 | > 100000 | > 100000 | > 100000 | > 100000 | > 100000 | > 100000 | > 100000 | > 100000 | – | – | – | – | – | – | – | – | – | – |
| ClCCN(CCCl)Cc1ccc(Nc2ccnc3cc(Cl)ccc23)cc1 | 6040 | – | – | 14600 | 2780 | – | 5080 | 9340 | 6660 | – | 2120 | 1350 | 269 | 1110 | 588 | 416 | 2780 | 2570 | – | – |
| COC[C@H]1C(=O)NCC(=O)N2NCCC[C@H]2C(=O)N(O)[C@H](C)C(=O)O[C@@H](C(C)C)[C@H](NC(=O)[C@](C)(O)[C@]2(O)CC[C@@H](CC(C)C)[C@H](C)O2)C(=O)N2NCCC[C@@H]2C(=O)N1O | – | – | – | – | 55.5 | 29.1 | 28 | – | 33.3 | 30.6 | – | – | 11.8 | < 12.8 | – | < 10 | 46.4 | 15 | 14.2 | < 10 |
| CCOc1ncn(-c2ccc(NC(=S)Nc3cccc(O)c3)cc2)n1 | > 100000 | > 100000 | > 100000 | > 100000 | > 100000 | – | > 100000 | > 100000 | > 100000 | > 100000 | – | – | – | – | – | – | > 100000 | – | – | – |
